Reference: patent US9982011B2, “Legumain activated doxorubicin derivative as well as preparation method and application thereof” (priority 2012, dated 2018)
Entries after “also recorded” stand apart in the source; their conditions may differ.

Columns and labels:
A549 = assay: Efficacy at different doses in human non-small cell lung cancer A549 model; format: in vivo; settings: FIG. 6
Text: In some examples and many other tumor treatment modes of the present invention, efficacies of Succinyl-AANL-DOX (SEQ ID NO: 2) and EMC-AANL-DOX (SEQ ID NO: 2) were also studied and compared according to the same method as described above. […] Thus, EMC-AANL-DOX (SEQ ID NO: 2) could satisfy our requirements on clinical development.

4T1 cells [1] = assay: Efficacy in 4T1 tumor metastasis (lung) model in BALB/C mice; format: in vivo; settings: lung, day 27; i.p. daily for 8 days; S1, S2 10 μmol/kg, doxorubicin hydrochloride 3 μmol/kg
Text: Test purpose: to investigate the anti-tumor efficacy of S1 and S2 in a tumor metastasis treatment model from BALB/C mice.
Test drug: S1 and S2 injections, and doxorubicin hydrochloride injection, diluted to corresponding concentrations with physiological saline when testing.
1. Animal: BALB/C mice of 6-8 weeks old, all female.
1) 4T1 cells were purchased from American type culture collection (ATCC) and identified according the specification provided by ATCC. Cells were cultivated in DMEM culture medium containing 10% fetal bovine serum at 37° C. and 5% CO2. The cells were passaged for every three days and cells within the 15th passage were used.
2) Production of tumor metastasis. 10^6 […] were subcutaneously injected to the back of the BALB/C mice. Mice were randomly grouped after the tumor grew to about 1.5 cm. The subcutaneous tumor was removed by surgery and drug treatment began. Mice were killed after anesthesia on day 27. The whole lung was taken out and put into Bouin's solution for staining. The number of the tumor metastasized to lung was counted with anatomical microscope.
3) Course of treatment. According to the clinical application of S1 and S2, drugs were intraperitoneally injected. A dose of 10 μmol/kg (<1/10 MTD) was used for the S1 treatment group, 10 μmol/kg (<1/10 MTD) for the S2 treatment group, and 3 μmol/kg (>1/2 MTD) for doxorubicin hydrochloride. The control group was administered with physiological saline. The drugs were administered daily for 8 days.

Cathepsin B [2] = biological target: T1, Cathepsin B (Homo sapiens, UniProt P07858); assay: Cathepsin enzymatic activity with Z-Phe-Arg-NMec substrate; format: biochemical; settings: pH 6.0, FIG. 2
Text: Furthermore, Z-Phe-Arg-NMec was used as substrate to analyze the activity of cathepsin under pH 6.0. […] Cathepsin B was highly expressed in the lysosome of the tumor cell. It could degrade type I collagen, activate interstitial procollagenase and type IV procollagenase, and degrade type I, II, III and IV collagen fibers in the stroma, thus anticipating infiltration and metastasis of tumor.

[3] = Distribution of drug in tumor and heart tissues after intravenous injection; format: in vivo; settings: for Distribution in tumor tissue sections (fluorescence microscope): 12 hours after intravenous injection of 10 μmol/kg, compared with Succinyl-AANL-DOX, FIG. 3; for Accumulation in the heart tissue / Accumulation in the tumor tissue: FIG. 4; for Accumulation in the tumor tissue: compared with doxorubicin and Succinyl-AANL-DOX
Text: After intravenous injection of EMC-AANL-DOX (SEQ ID NO: 2), EMC-AANL-DOX (SEQ ID NO: 2) could accumulate at the tumor site due to the targeting property of the EMC group, as compared with Succinyl-AANL-DOX (SEQ ID NO: 2) and more EMC-AANL-DOX (SEQ ID NO: 2) were distributed in the tumor tissue. Since the drug itself could produce fluorescence, we detected distribution of Succinyl-AANL-DOX (SEQ ID NO: 2) and EMC-AANL-DOX (SEQ ID NO: 2) in the tumor tissue sections by fluorescence microscope 12 hours after intravenous injection of 10 μmol/kg Succinyl-AANL-DOX (SEQ ID NO: 2) and EMC-AANL-DOX (SEQ ID NO: 2). The nucleus was stained by 4′,6-diamidino-2-phenylindole (DAPI).

Cathepsin B [4] = biological target: T1, Cathepsin B; assay: In vitro binding to cathepsin absorbed on a 96-well plate (fluorescence of bound drug); settings: cathepsin absorbed on 96-well plate, blocked with BSA, FIG. 1
Text: The R6 group allows the drug to be able to target cathepsin (Cathepsin B) in the tumor microenvironment and inhibit the activity of cathepsin necessary for tumor growth, development and metastasis. […] The R6 group also allows the drug to have an additional function of targeting tumor, thus the drug has two targeted effects.
The test method was described as follows. Cathepsin was absorbed on a 96-well plate and blocked with BSA. Succinyl-AANL-DOX (SEQ ID NO: 2), S1 and a mixture of S1 and E-64 (an inhibitor for specific binding of cathepsin) were added to allow them to bind to the cathepsin on the 96-well plate. The unbound drugs were removed and the fluorescence of the bound drug was detected.

4T1 cells [5] = assay: Tumor growth inhibition in 4T1 breast cancer model in BALB/C mice; format: in vivo
Text: Test purpose: to investigate the anti-tumor efficacy of Succinyl-AANL-DOX (SEQ ID NO: 2) and EMC-AANL-DOX (SEQ ID NO: 2) in a 4T1 breast cancer treatment model from BALB/C mice.
Treatment drug: Succinyl-AANL-DOX (SEQ ID NO: 2) and EMC-AANL-DOX (SEQ ID NO: 2) injections, and doxorubicin hydrochloride injection, diluted to corresponding concentrations by physiological saline when testing.
1) 4T1 cells were purchased from American type culture collection (ATCC) and identified according the specification provided by ATCC.
2) Production of tumor. 10^6 4T1 cells were subcutaneously injected to the back of the BALB/C mice. Mice were randomly grouped after the diameter of the tumor reached about 0.3 cm to 0.4 cm. Then treatment began.
Succinyl-AANL-DOX (SEQ ID NO: 2), Legubicin and EMC-AANL-DOX (SEQ ID NO: 2) were intraperitoneally injected. The dose of Succinyl-AANL-DOX (SEQ ID NO: 2), Legubicin and EMC-AANL-DOX (SEQ ID NO: 2) were all 28.16 μmol/kg. The dose of doxorubicin hydrochloride was 3.448 μmol/kg. The control group was administered with physiological saline. The drugs were administered twice weekly for three weeks.
4) Results and discussion.

[6] = Metabolic half-life in mice blood
serum albumin = serum albumin (Mus musculus, UniProt P07724); settings: blood taken 10 minutes after intravenous tail injection
Sequence of serum albumin (P07724 25-608): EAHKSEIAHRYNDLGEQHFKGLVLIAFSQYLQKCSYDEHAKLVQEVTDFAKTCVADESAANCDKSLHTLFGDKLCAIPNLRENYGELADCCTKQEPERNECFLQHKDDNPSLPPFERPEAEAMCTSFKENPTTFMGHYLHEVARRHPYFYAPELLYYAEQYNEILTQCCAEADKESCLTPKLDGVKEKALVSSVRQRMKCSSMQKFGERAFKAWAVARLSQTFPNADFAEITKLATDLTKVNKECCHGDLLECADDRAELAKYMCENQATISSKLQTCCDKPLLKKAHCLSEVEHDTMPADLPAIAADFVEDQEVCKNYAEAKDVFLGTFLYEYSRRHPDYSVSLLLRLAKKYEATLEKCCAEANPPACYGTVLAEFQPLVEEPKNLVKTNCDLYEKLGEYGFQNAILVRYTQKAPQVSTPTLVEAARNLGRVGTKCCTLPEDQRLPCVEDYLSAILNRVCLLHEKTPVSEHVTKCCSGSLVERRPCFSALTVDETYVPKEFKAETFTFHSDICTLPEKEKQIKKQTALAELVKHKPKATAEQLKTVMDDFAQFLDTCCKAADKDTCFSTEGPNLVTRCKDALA
Method: Bloods were taken after 10 minutes and centrifuged to obtain serum. The proteins in the serum were precipitated by 70% ethanol.

## COc1cccc2c1C(=O)c1c(O)c3c(c(O)c1C2=O)CC(O)(C(=O)CO)CC3OC1CC(NC(=O)C(CC(C)C)NC(=O)C(CC(N)=O)NC(=O)C(C)NC(=O)C(C)NC(=O)CCCCCN2C(=O)C=CC2=O)C(O)C(C)O1 (stereo not shown) [Example S1, EMC-AANL-Doxorubicin]
A549
  Effect on tumor in A549 model (in words): could completely kill the tumor, with no recurrence of tumor in the later stage of the treatment
4T1 cells [1]
  Inhibitory rate on metastasis: 91.6%
  Number of metastasized tumor: 12 ± 4
Cathepsin B [2]
  Inhibition of enzymatic activity of cathepsin: could effectively inhibit the enzymatic activity of cathepsin
[3]
  Distribution in tumor tissue sections (fluorescence microscope): have the effect to accumulate the drug at tumor cell
  Accumulation in the heart tissue: reduced accumulation in the heart
  Accumulation in the tumor tissue: accumulation of S1 in the tumor site
[3]; listed as EMC-AANL-DOX
  Distribution in tumor tissue sections (fluorescence microscope): significantly more
  Accumulation in the heart tissue: no accumulation in the heart tissue
  Accumulation in the tumor tissue: accumulated in a higher concentration in the tumor tissue
Cathepsin B [4]
  Binding to cathepsin: bound to the cathepsin; also recorded: can bind cathepsin
Cathepsin B [4]; listed as EMC-AANL-DOX
  Binding to cathepsin: can efficiently bind to Cathepsin B
4T1 cells [5]; 28.16 μmol/kg i.p. twice weekly for three weeks, compared with Succinyl-AANL-DOX, Dox and BOC-AANL-DOX, FIG. 5
  Inhibitory effect on tumor growth (in words): could significantly improve the inhibitory effect on tumor growth; also recorded: exhibits a superior inhibitory effect on tumor growth
4T1 cells [5]; 4T1 breast cancer model, etc.
  Inhibitory effect on tumor growth relative to Succinyl-AANL-DOX: 4-5 folds
[6]
  Metabolic half-life in the mice blood: above 74 hours
Serum albumin
  Binding to serum albumin / plasma protein in blood: most of S1 could bind to serum albumin and thus precipitated; also recorded: most of S1 bound to the plasma protein
